The values below come from PubChem BioAssay AID1626 (SRMLSC, 2009).

This experiment has as its system M. tuberculosis H37Rv growth inhibition. The experiment can be described thus: M. tuberculosis H37Rv growth inhibitors, H37Rv strain (AID 1626). The conditions noted are these: for IC90: measured here: IC90 against H37Rv; for CC50: measured here: Vero cell cytotoxicity.

Consider `c1ccc(CNc2nc(CN3CCOCC3)nc3scc(-c4ccccc4)c23)cc1`, for which the IC50 was 13 µM and the IC90 is 21.9 µM.
In the case of `Cc1cccc(-c2cc3nc(C)c(C)c(NCCCn4ccnc4)n3n2)c1`, the IC50 is 4.54 µM, the IC90 turned out to be 8.03 µM and the CC50 was above 40 µM.
Regarding `CCCCCCCCCCNC(=O)C(=O)Nc1ccccn1`, the IC50 is 6.97 µM and the 90% effect concentration (IC90) is above 100 µM.
Take `Cc1cccc(C(=O)Nc2nnc(-c3ccco3)o2)c1`: the half-maximal inhibitory concentration (IC50) is 0.695 µM, the IC90 amounted to 3.56 µM and the 50% cytotoxic concentration (CC50) was determined as 37.1 µM.
`Cc1ccc(C(=O)Oc2oc(-c3ccccc3)nc2C=Nc2ccc(N(C)C)cc2)cc1` came in with a CC50 above 40 µM.
Regarding `O=c1c2ccccc2c(C=NC2CCN(Cc3ccccc3)CC2)c(O)n1Cc1ccc2c(c1)OCO2`, the IC50 is 6.36 µM, the 90% effect concentration (IC90) was 12.2 µM and the CC50 is above 40 µM.
For `COc1cccc2c1C(=O)c1c(O)c3c(c(O)c1C2=O)C[C@@](O)(C(=O)CO)C[C@@H]3O[C@H]1C[C@H](N)[C@@H](O)[C@H](C)O1` the same measures were 14.9 µM, 26.4 µM and 7.47 µM.
Regarding `CCOCC(=O)Nc1ccc(Br)c(C)c1`, the IC50 is 9.8 µM and the IC90 is above 100 µM.
As to `Cc1ccc2nc(/C(C#N)=C\c3ccc([N+](=O)[O-])o3)[nH]c2c1`, the 50% inhibitory concentration (IC50) was below 0.195 µM, the concentration for an effect of 90% (IC90) is below 0.195 µM and the CC50 is 3.11 µM.
With `O=C(OCc1nc2ccccc2s1)c1ccc(Br)o1`, the IC50 was 12.7 µM and the IC90 was above 100 µM.
As to `CC(C)Cc1cc(C(=O)Nc2cc(Br)ccc2O)no1`, the half-inhibitory concentration (IC50) was 3.9 µM, the IC90 was above 100 µM and the CC50 amounted to 26.5 µM.
With `Cn1nc(C(F)(F)F)c2cc(NC(=O)OCC(C)(C)C)sc21`, the 50% inhibitory concentration (IC50) is 13.3 µM and the IC90 was above 100 µM.
Regarding `C=CCOC(=O)C(C#N)c1nc2ccccc2nc1N1CCN(Cc2ccc3c(c2)OCO3)CC1` (centres undefined), the half-inhibitory concentration (IC50) is 5.44 µM, the IC90 came out at 6.17 µM and the CC50 is above 40 µM.
Consider `COc1ccc(-n2c(C)nc3sc4c(c3c2=O)CCCC4)cc1`, for which the IC50 is 11.7 µM and the 90% effect concentration (IC90) amounted to 13.3 µM.
`O=C(OCC#CCSc1nc2ccccc2o1)c1cc2ccccc2o1`: the 50% inhibitory concentration (IC50) was 5.72 µM, the 90% effect concentration (IC90) was found to be 12.7 µM and the CC50 was above 40 µM.
Regarding `COc1ccc2cc(C(=O)C3CCCN(Cc4cnc(C)s4)C3)ccc2c1` (centres undefined), the IC50 is 13.6 µM and the IC90 was above 100 µM.
With `CCC(CO)[n+]1c(C)cc(/C=C2\Sc3ccccc3N2Cc2ccccc2)cc1C` (centres undefined), the IC50 is 1.3 µM, the IC90 was found to be 1.95 µM and the cytotoxic concentration (CC50) came out at 23.2 µM.
Take `COC(=O)c1cc(Sc2cccc(Cl)c2Cl)ccn1`: the concentration for half-maximal inhibition (IC50) was 11.4 µM and the 90% effect concentration (IC90) is 17 µM.
Turning to `CCOC(=O)c1cnn(-c2nc3c(C)cccc3s2)c1C(F)(F)F`, the IC50 was 54.6 µM, the 90% effect concentration (IC90) was above 100 µM and the CC50 was above 40 µM.
The corresponding values for `COc1ccc(-c2oc3ncn(Cc4ccco4)c(=N)c3c2-c2ccc(OC)cc2)cc1` are 8.35 µM, 13.9 µM and 23.7 µM.
For `Cc1nc(SCC(=O)Nc2cc(C)on2)c2c3c(sc2n1)CCCC3` the same measures were below 0.195 µM, 13.8 µM and 21 µM.
As to `CC(=O)N1CCN(c2cc3c(cc2F)c(=O)c(C(=O)O)cn3C2CC2)CC1`, the 50% inhibitory concentration (IC50) was 0.949 µM and the IC90 was 1.56 µM.
As to `Cc1ccc(Oc2cc(NC(=O)CCCn3nc([N+](=O)[O-])cc3C)cc([N+](=O)[O-])c2)cc1`, the IC50 is 12.1 µM, the concentration for an effect of 90% (IC90) is 13.6 µM and the 50% cytotoxic concentration (CC50) is above 40 µM.
On to `COC(=O)CCCC(=O)Nc1ccc(Cl)c(Cl)c1`, for which the IC50 was 23.1 µM and the 90% effect concentration (IC90) was above 100 µM.
With `O=C(CCCSc1nnc(SCCCC(=O)c2ccc(F)cc2)s1)c1ccc(F)cc1`, the half-maximal inhibitory concentration (IC50) is 0.516 µM, the concentration for an effect of 90% (IC90) stood at 0.654 µM and the CC50 was 26.4 µM.
The corresponding values for `O=C(/C=C/c1ccnc2ccccc12)c1cccs1` are 17.6 µM, 24.6 µM and above 40 µM.
Take `COc1ccc(N=C2C(=O)Nc3ccccc32)cc1`: the IC90 was above 100 µM.
As for `COC(=O)c1ccc(NC(=O)CSC2=NCCN2)cc1`, the 90% effect concentration (IC90) was above 100 µM.
Regarding `Cc1ccc(N=Nc2ccc(O)c3ncccc23)cc1C`, the half-inhibitory concentration (IC50) was 14.1 µM, the IC90 was above 100 µM and the half-maximal cytotoxic concentration (CC50) was determined as 3.1 µM.
`O=C(NCCc1ccc(Cl)cc1)C1CCC(CNc2c(N3CCCCC3)c(=O)c2=O)CC1` (centres undefined): the IC50 is 11.8 µM and the 90% effect concentration (IC90) was determined as 13.4 µM.
Take `Cc1ccccc1/C=c1\s/c(=C\C(=O)C(C)(C)C)[nH]c1=O`: the IC50 is 52.8 µM, the IC90 is above 100 µM and the CC50 was 17.2 µM.
Regarding `O=C(c1ccc(CNc2c(N3CCCC3)c(=O)c2=O)cc1)N1CC=C(c2ccccc2)CC1`, the IC50 is 26.2 µM and the IC90 was above 100 µM.
As for `Cc1ccc(NC(=O)c2ccc([N+](=O)[O-])o2)c(C)c1`, the IC50 is 6.59 µM, the IC90 turned out to be 11.2 µM and the CC50 is 13.4 µM.
As to `COc1c(C)cc(C(=O)C2CCCN(Cc3cccc(C)n3)C2)cc1C` (centres undefined), the IC50 was 18.6 µM, the IC90 is above 100 µM and the CC50 is above 40 µM.
In the case of `CCOc1ccc(N=CC2=C(O)CC(c3ccco3)CC2=O)cc1` (centres undefined), the IC50 was 5.31 µM and the 90% effect concentration (IC90) is above 100 µM.
For the molecule `CCOC(=O)CSc1nc(N)c(C#N)c(CC(C)C)c1C#N`, the IC50 was 1.44 µM and the IC90 was found to be 8.77 µM.
For the molecule `Cc1ccc2c(c1C)NC(=O)C21N2CCCC2C(C(=O)c2ccc3ccccc3c2)C12C(=O)Nc1ccccc12` (centres undefined), the IC50 is 39.3 µM, the concentration for an effect of 90% (IC90) is above 100 µM and the half-maximal cytotoxic concentration (CC50) was above 40 µM.
For `Oc1c(Cl)cc(Cl)cc1/C=C/c1ccc2cccc(O)c2n1` the same measures were 3.06 µM, above 100 µM and 10.1 µM.
Consider `CCCCCCCCn1cnc2c(N)c(C)c(C)cc21`, for which the IC50 was 15.9 µM and the concentration for an effect of 90% (IC90) was 21.4 µM.
For `CC(C)OC(=O)CSc1ncnc2c1cnn2Cc1ccccc1`, the IC50 was 8.22 µM and the IC90 stood at 19 µM.
For `COC(=O)CSc1nc2c(c(-c3ccco3)c1C#N)CCCC2` the same measures were 3.08 µM and 3.39 µM.
Regarding `Cc1cccc(CSc2nnc(CCCCCNC(=O)OC(C)(C)C)o2)c1`, the IC50 was 15.3 µM, the IC90 was 21.3 µM and the CC50 was above 40 µM.
`CCCCCn1c(=O)c(C(=O)Nc2nc3ccccc3[nH]2)c(O)c2ccccc21`: the 50% inhibitory concentration (IC50) is 0.706 µM, the 90% effect concentration (IC90) worked out at 0.757 µM and the half-maximal cytotoxic concentration (CC50) stood at 6.6 µM.
The corresponding values for `CC(C)[C@H]1C(=O)O[C@H](C(C)C)C(=O)N(C)[C@@H](C(C)C)C(=O)O[C@H](C(C)C)C(=O)N(C)[C@@H](C(C)C)C(=O)O[C@H](C(C)C)C(=O)N1C` are 7.26 µM, 8.9 µM and 12.3 µM.
Regarding `OCCN(/C=N/c1nc(-c2ccc(Br)cc2)cs1)CCO`, the half-maximal inhibitory concentration (IC50) was 31.4 µM and the 90% effect concentration (IC90) is above 100 µM.
For the molecule `O=C(Oc1ccccc1Cl)c1ccc(N2CCOCC2)c([N+](=O)[O-])c1`, the half-inhibitory concentration (IC50) is 4.09 µM and the IC90 was 11.1 µM.
On to `Cc1ccc(Oc2cc(NC(=O)CCCn3nc(C)c([N+](=O)[O-])c3C)cc([N+](=O)[O-])c2)cc1`, for which the 50% inhibitory concentration (IC50) is 2.33 µM, the concentration for an effect of 90% (IC90) amounted to 3.34 µM and the CC50 is above 40 µM.
In the case of `Cn1c(-c2c(N)n(CCc3ccccc3)c3nc4ccccc4nc23)nc2ccccc21`, the IC50 is 1.83 µM, the IC90 was 28.4 µM and the cytotoxic concentration (CC50) was determined as 35.1 µM.
Take `Cc1ccc(-c2noc(-c3cc4ccccc4oc3=O)n2)cc1`: the half-maximal inhibitory concentration (IC50) was 1.5 µM and the IC90 was above 100 µM.
On to `COc1ccc(NC(=O)CCCSc2ccccc2)cc1`, for which the IC90 is above 100 µM.
In the case of `O=C(Nc1nc2ccccc2[nH]1)C12CC3CC(CC(C3)C1)C2`, the IC50 is 2.25 µM, the IC90 came out at 13.1 µM and the CC50 is above 40 µM.
The corresponding values for `O=C(/C=C/c1ccc(Br)cc1)c1ccco1` are 14.5 µM, 21.3 µM and above 40 µM.
Molecule `O=C(Nc1nc(-c2ccncc2)cs1)C1c2ccccc2Oc2ccccc21` gave a cytotoxic concentration (CC50) above 40 µM.
In the case of `Cc1cc(-c2ccc(/C=N/n3cnnc3)o2)ccc1Cl`, the IC90 was above 100 µM.
On to `CSc1cccc(NC(=O)CSc2nnc(C)s2)c1`, for which the IC50 was 97.1 µM and the IC90 was above 100 µM.
As to `CCCCCCCCC/C(=N\O)c1ccccn1`, the IC50 is 1.55 µM, the IC90 was found to be 1.68 µM and the CC50 was 13.2 µM.
`COc1cc(OC)c2cc[nH]c2c1` had an IC90 above 100 µM.
For `COc1ccccc1-c1nnc(SCC(=O)Nc2cc(C)on2)o1`, the IC50 was 10.4 µM and the IC90 was 16.5 µM.
Take `O=C(NCCc1ccc(Cl)cc1)c1ccc(CNc2c(N3CCOCC3)c(=O)c2=O)cc1`: the IC50 was 2.85 µM and the IC90 came to 3.19 µM.
On to `CSc1nc2ccc(NS(=O)(=O)c3cccc(Cl)c3Cl)cc2s1`, for which the concentration for an effect of 90% (IC90) is above 100 µM.
`CCOC(=O)CSc1nnc(-c2ccc([N+](=O)[O-])cc2)o1`: the half-maximal inhibitory concentration (IC50) is 0.316 µM and the 90% effect concentration (IC90) was 3.84 µM.
`Clc1ccc(COC(Cn2ccnc2)c2ccc(Cl)cc2Cl)c(Cl)c1` (centres undefined): the IC50 is 2.85 µM, the IC90 came to 3.27 µM and the 50% cytotoxic concentration (CC50) was 36.8 µM.
On to `CCOc1ccc(-c2nnc(N)o2)cc1`, for which the IC50 was 57.8 µM and the 90% effect concentration (IC90) was above 100 µM.
On to `Oc1cccc(-c2nc3ccc4ccccc4c3c3c2CCC3)c1`, for which the IC50 is 16.8 µM, the concentration for an effect of 90% (IC90) amounted to 27 µM and the half-maximal cytotoxic concentration (CC50) was above 40 µM.
With `CC1CCCN(C(=O)C2CCC(CNc3c(N4CCCCC4)c(=O)c3=O)CC2)C1` (centres undefined), the half-inhibitory concentration (IC50) was 11.7 µM and the concentration for an effect of 90% (IC90) is above 100 µM.
Regarding `CN(C(=O)c1ccco1)c1nc2c(s1)CCCC2`, the CC50 is above 40 µM.

As usually defined, the IC50 is the concentration needed to halve the response being measured. A word on the IC90: it is the concentration needed for an effect of 90%. A low value points to an effect from little substance. In general, CC50 refers to the concentration giving 50% cytotoxicity. Low readings indicate harm at low concentration, high ones better tolerance by the cells.
